Data: PubChem BioAssay (NCI)
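Each compound was tested at five concentrations against cells in 96-well plates for 48 hours. TGI denotes the concentration required for complete inhibition of growth.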

Assays:
Test in all cases: DTP human tumour cell line panel, 48 h
[1] = test system: KM20L2 colon
[2] = test system: TK-10 renal
[3] = test system: SK-MEL-5 melanoma
[4] = test system: HOP-62 NSCLC
[5] = test system: NCI-H226 lung
[6] = test system: ACHN renal
[7] = test system: RPMI-8226 leukemia
[8] = test system: DLD-1 colon
[9] = test system: SNB-75 CNS
[10] = test system: HCC-2998 colon
[11] = test system: NCI-H522 lung
[12] = test system: HL-60(TB) leukemia
[13] = test system: UO-31 renal
[14] = test system: MALME-3M melanoma
[15] = test system: LXFL 529 NSCLC
[16] = test system: DMS 273 small cell lung
[17] = test system: RXF-631 renal
[18] = test system: NCI-H460 lung
[19] = test system: A549 NSCLC
[20] = test system: A498 renal
[21] = test system: XF 498 CNS
[22] = test system: M14 melanoma
[23] = test system: OVCAR-4 ovarian
[24] = test system: CAKI-1 renal
[25] = test system: HT29 colon
[26] = test system: SK-MEL-2 melanoma
[27] = test system: SF-295 CNS
[28] = test system: DMS 114 small cell lung
[29] = test system: UACC-257 melanoma
[30] = test system: EKVX NSCLC
[31] = test system: 786-0 renal
[32] = test system: K-562 leukemia
[33] = test system: SK-OV-3 ovarian
[34] = test system: CCRF-CEM leukemia
[35] = test system: COLO 205 colon
[36] = test system: SK-MEL-28 melanoma
[37] = test system: M19-MEL melanoma
[38] = test system: SF-539 CNS
[39] = test system: UACC-62 melanoma
[40] = test system: SN12C renal
[41] = test system: IGROV1 ovarian
[42] = test system: HOP-92 NSCLC
[43] = test system: SNB-19 CNS
[44] = test system: SW-620 colon
[45] = test system: U251 CNS
[46] = test system: OVCAR-5 ovarian
[47] = test system: SF-268 CNS
[48] = test system: OVCAR-3 ovarian
[49] = test system: HCT-15 colon
[50] = test system: OVCAR-8 ovarian
[51] = test system: MOLT-4 leukemia
[52] = test system: HCT-116 colon
[53] = test system: NCI-H23 lung
[54] = test system: KM12 colon
[55] = test system: SR leukemia
[56] = test system: LOX IMVI melanoma
[57] = test system: HOP-18 NSCLC
[58] = test system: RXF 393 renal
[59] = test system: SNB-78 CNS

In the case of O=C1C2=C(c3ccccc31)C(c1ccccc1)NC(=S)N2 (stereo not given), the TGI [1] was > 100 µM, the TGI [2] was > 100 µM and the TGI [3] was > 100 µM. The TGI [4] was > 100 µM, the TGI [5] was > 100 µM and the TGI [6] was > 100 µM. The TGI [7] was > 100 µM, the TGI [8] was > 100 µM and the TGI [9] was 80 µM. For the same compound, the TGI [10] was > 100 µM, the TGI [11] was > 100 µM and the TGI [12] was 39.6 µM. For the same compound, the TGI [13] was > 100 µM, the TGI [14] was > 100 µM and the TGI [15] was > 100 µM. The TGI [16] was > 100 µM, the TGI [17] was > 100 µM and the TGI [18] was > 100 µM. For the same compound, the TGI [19] was > 100 µM, the TGI [20] was > 100 µM and the TGI [21] was > 100 µM. The TGI [22] was > 100 µM, the TGI [23] was > 100 µM and the TGI [24] was > 100 µM. The TGI [25] was > 100 µM, the TGI [26] was > 100 µM and the TGI [27] was > 100 µM. For the same compound, the TGI [28] was > 100 µM, the TGI [29] was > 100 µM and the TGI [30] was > 100 µM. For the same compound, the TGI [31] was 85 µM, the TGI [32] was 67.4 µM and the TGI [33] was > 100 µM. The TGI [34] was > 100 µM, the TGI [35] was > 100 µM and the TGI [36] was > 100 µM. The TGI [37] was > 100 µM, the TGI [38] was 46.3 µM and the TGI [39] was > 100 µM. For the same compound, the TGI [40] was > 100 µM, the TGI [41] was > 100 µM and the TGI [42] was 97.1 µM. For the same compound, the TGI [43] was > 100 µM, the TGI [44] was > 100 µM and the TGI [45] was > 100 µM. The TGI [46] was > 100 µM, the TGI [47] was > 100 µM and the TGI [48] was > 100 µM. The TGI [49] was > 100 µM, the TGI [50] was > 100 µM and the TGI [51] was > 100 µM. The TGI [52] was > 100 µM, the TGI [53] was > 100 µM and the TGI [54] was > 100 µM.
COc1ccc(NC(=O)/C(=C/c2ccc(N(CCC#N)CCC#N)cc2)NC(=O)c2cc([N+](=O)[O-])ccc2Cl)cc1 was tested, and the TGI [1] was > 100 µM, the TGI [55] was > 100 µM and the TGI [2] was > 100 µM. For the same compound, the TGI [3] was > 100 µM, the TGI [4] was > 100 µM and the TGI [5] was > 100 µM. The TGI [6] was 59.5 µM, the TGI [7] was > 100 µM and the TGI [8] was > 100 µM. For the same compound, the TGI [10] was > 100 µM, the TGI [11] was > 100 µM and the TGI [13] was > 100 µM. The TGI [14] was > 100 µM, the TGI [15] was > 100 µM and the TGI [16] was > 100 µM. For the same compound, the TGI [17] was > 100 µM, the TGI [19] was 89.7 µM and the TGI [21] was > 100 µM. The TGI [22] was > 100 µM, the TGI [23] was > 100 µM and the TGI [24] was > 100 µM. The TGI [26] was > 100 µM, the TGI [27] was 73.2 µM and the TGI [56] was > 100 µM. The TGI [30] was > 100 µM, the TGI [57] was > 100 µM and the TGI [32] was > 100 µM. The TGI [33] was > 100 µM, the TGI [34] was > 100 µM and the TGI [35] was > 100 µM. For the same compound, the TGI [36] was > 100 µM, the TGI [37] was > 100 µM and the TGI [38] was 50.8 µM. The TGI [39] was > 100 µM, the TGI [40] was > 100 µM and the TGI [41] was > 100 µM. The TGI [42] was > 100 µM, the TGI [43] was > 100 µM and the TGI [58] was > 100 µM. For the same compound, the TGI [44] was > 100 µM, the TGI [45] was > 100 µM and the TGI [46] was > 100 µM. For the same compound, the TGI [47] was > 100 µM, the TGI [48] was > 100 µM and the TGI [49] was > 100 µM. The TGI [50] was > 100 µM, the TGI [51] was > 100 µM and the TGI [59] was > 100 µM. For the same compound, the TGI [52] was > 100 µM, the TGI [53] was > 100 µM and the TGI [54] was > 100 µM.
